Test results from patent US20090069181A1, “Product and Process for Treating Water Bodies, Sediments and Soils” (SOLVAY SA, priority 2006, published 2009).

Tested on: blue green algae
Assay: Pond treatment, algae control in a four-foot deep pond (Example 1)
Type: in vivo
Conditions: treated every two weeks for approximately 6 years during the warmer season
Excerpt: The solid form of this invention containing approximately 70% calcium peroxide was applied to the pond by spreading it over the surface at a rate of 10 lbs per acre foot.

Structure (SMILES): O=S(=O)([O-])[O-].[Cu+2] [copper sulfate]
- control of algae: control of algae was still difficult
